Reference: patent US8324457B2, “Soybean event 3560.4.3.5 and compositions and methods for the identification and/or detection thereof” (Pioneer Hi-Bred International, Inc., priority 2006, dated 2012)

Legend:
[1] = test system: transgenic event 3560.4.3.5 soybean; experiment: Greenhouse herbicide tolerance of T0 and T1 plants, visual rating 10 days after spray; format: in vivo, Glycine max; conditions: T1 tolerant plants, scale to 9 = no response
From the text: Selected events were advanced at the T1 generation for herbicide tolerance confirmation in greenhouses. Plants were sprayed at the V3 growth stage with either 1.68 kg ae ha^−1 glyphosate, 60 g ai ha^−1 thifensulfuron methyl(methyl 3-[[[[(4-methoxy-6-methyl-1,3,5-triazin-2-yl)amino]carbonyl]amino]sulfonyl]-2-thiophenecarboxylate), or a sequential […] […] […] Since the T1 events were segregating, only the non-susceptible plants were scored, and an average rating of tolerant plants within each event was calculated.
T0 3560.4.3.5 soybean were evaluated for glyphosate tolerance.
The 3560.4.3.5 event was advanced to the T1 generation in a greenhouse to confirm herbicide tolerance. The 3560.4.3.5 event had tolerance after application of 1.68 kg ae ha^−1 glyphosate, after application of 60.0 g ai ha^−1 thifensulfuron methyl, and after a sequential application of 70 g ai ha^−1 thifensulfuronmethyl at V3, […]

3560.4.3.5 soybean = experiment: ALS inhibitor herbicide tolerance field trials, crop response rating; parameters: species or system Glycine max; conditions: in vivo
From the text: ALS inhibitor herbicide tolerance of the gm-hra gene was compared to sulfonylurea tolerant soybeans (STS®) by growing T4 plants of event 3560.4.3.5 and a STS® cultivar. […] Spray treatments were applied at the V3 growth stage and consisted of one of the following: an unsprayed control, 8.8 g ai ha^−1 rimsulfuron (N-[[(4,6-dimethoxy-2-pyrimidinyl)amino]carbonyl]-3-(ethylsulfonyl)-2-pyridinesulfonamide), 8.8 g ai ha^−1 tribenuron methyl (methyl 2-[[[[(4-methoxy-6-methyl-1,3,5-triazin-2-yl)methylamino]carbonyl]amino]sulfonyl]benzoate), or 30.0 g ai ha^−1 chlorimuron ethyl (ethyl 2-[[[[(4-chloro-6-methoxypyrimidin-2-yl)amino]carbonyl]amino]sulfonyl]benzoate)+9.67 g ai ha^−1 thifensulfuron methyl. […] Plots were evaluated for crop response at 7 DAT and 14 DAT, and assigned a visual response score from 0% to 100% response. Crop response data were analyzed using the mixed model ANOVA procedure of SAS.
ALS inhibitor herbicide tolerance trials were completed at two separate locations. Plants from the T5 generation of event 3560.4.3.5 and a STS® cultivar were grown in a RCB design in a split plot arrangement with three replications of paired 2.4 m rows (76.2 cm row spacing). […] Crop response data were analyzed using the mixed model ANOVA procedure of SAS. […]

[2] = test system: seedlings that lacked the event; experiment: Chlorsulfuron herbicide seedling test on germination paper; format: in vivo, Glycine max; conditions: germination paper saturated with 20 ml/l of a 66.7 mg/l chlorsulfuron stock, pH 7.5; observed 10 days after initial treatment
[3] = test system: seedlings that possessed the 3560.4.3.5 event; experiment: as above; format: in vivo, Glycine max; conditions: germination paper saturated with 20 ml/l of a 66.7 mg/l chlorsulfuron stock, pH 7.5; observed 10 days after initial treatment

## COC(=O)c1sccc1S(=O)(=O)NC(=O)Nc1nc(C)nc(OC)n1 [Thifensulfuron methyl, methyl 3-[[[[(4-methoxy-6-methyl-1,3,5-triazin-2-yl)amino]carbonyl]amino]sulfonyl]-2-thiophenecarboxylate]
[1]; thifensulfuron methyl 60.0 g ai ha-1 + NIS + AMS at V3, 10 days after application
  average visual response rating: 7.0
[1]; thifensulfuron methyl 70 g ai ha-1 + NIS + AMS at V3, 10 days after the V3 application
  average visual response rating, first score of sequential application: 8.0

## CCS(=O)(=O)c1cccnc1S(=O)(=O)NC(=O)Nc1nc(OC)cc(OC)n1 [Rimsulfuron, N-[[(4,6-dimethoxy-2-pyrimidinyl)amino]carbonyl]-3-(ethylsulfonyl)-2-pyridinesulfonamide]
3560.4.3.5 soybean
  crop response of 3560.4.3.5 soybean compared to STS, in words: significantly lower crop response compared to STS®

## COc1nc(C)nc(NC(=O)NS(=O)(=O)c2ccccc2Cl)n1 [chlorsulfuron, 2-chloro-N-[[(4-methoxy-6-methyl-1,3,5-triazin-2-yl)amino]-carbonyl]benzenesulfonamide]
[2]
  seedling response in chlorsulfuron solution: created hooked unifoliolate leaves that did not expand and develop any further
[3]
  seedling response in chlorsulfuron solution: germinated and grew normally

## COC(=O)c1ccccc1S(=O)(=O)NC(=O)Nc1nc(C)nc(OC)n1 [Metsulfuron methyl, methyl 2-[[[[(4-methoxy-6-methyl-1,3,5-triazin-2-yl)amino]carbonyl]amino]sulfonyl]benzoate]
3560.4.3.5 soybean
  crop response of 3560.4.3.5 soybean compared to STS, in words: significantly lower crop response compared to STS®
